Tested on: H3K23 acetylation in U-2 OS cells
Test: U2OS cell H3K23 acetylation IF assay (immunofluorescence)
Format: cell-based
Conditions: Homo sapiens; for IC50: 24 h incubation, read-out: H3K23 ac/IC50; for Emax: inhibition of H3K23 acetylation, 24 h, read-out: Maximum inhibition rate/Imax %
Experimental: Test Example 3: U2OS Cell H3K23 Acetylation IF Assay (Immunofluorescence)
I. Reagents and Instruments
• 1. U-2 OS (ATCC HTB-96) • 2. Recombinant anti-histone H3 (acetyl K23) antibody (Abcam, ab177275) • 3. Goat anti-rabbit IgG (H+L), Superclonal™ recombinant secondary antibody, Alexa Fluor 488 (Thermofisher, A27034) • 4. Hoechst 33342 (Sigma-Aldrich, B2261-25MG) • 5. Assay plate, 96-well, black with clear bottom (Corning, 3603) • 6. Bovine serum albumin (BSA) (Sangon Biotech, A500023-0100) • 7. Methanol (GENERAL-REAGENT, G75851D) • 8. Tween-20 (Sangon, A100777-0500) • 9. Triton X-100 (Solarbio, T8200) • 10. PBS (Shanghai BasalMedia Technologies Co., Ltd., B320KJ) • 11. 20×PBS buffer (Sangon Biotech, B548117-0500) • 12. McCoy's 5A medium (Gibco, 16600082) • 13. 0.25% trypsin-EDTA (1×) (Gibco, 25200-072) • 14. Pen strep (Gibco, 15140-122) • 15. DPBS (1×) (Gibco, 14190-144) • 16. FBS (Gibco, 10091148) • 17. Automatic cell counter (Countstar, IC1000) • 18. Thermostatic incubator (Thermo, 1160) • 19. ImageXpress® Micro Confocal (Molecular Device)
a. Blocking buffer: PBS (Shanghai BasalMedia)+BSA (final concentration of 1%)+Triton X-100 (final concentration of 0.5%).
b. Wash buffer: PBS (20×PBS was diluted to 1×PBS)+Tween-20 (final concentration of 0.1%).
c. Primary antibody solution: Recombinant anti-histone H3 (acetyl K23) antibody was diluted in blocking buffer at a ratio of 1:1000.
d. Secondary antibody solutions: Goat anti-rabbit IgG (H+L), Superclonal™ recombinant secondary antibody, Alexa Fluor 488 was diluted in blocking buffer at a ratio of 1:1000, and Hoechst 33342 was diluted in blocking buffer at a ratio of 1:5000.
e. Compounds: initial concentration of 100 μM, 3-fold dilution, 9 gradient concentrations. All compound concentrations were diluted 500-fold with McCoy's 5A medium for later use.
2. Experimental Procedure
2.1. Cell Treatment (Day One)
a. The state of U-2 OS cells was observed under a microscope to make sure that the cell confluence was about 90%.
b. The cell supernatant was discarded. The cells were rinsed with DPBS once, and the DPBS was removed. The cells were digested with a proper amount of trypsin and left to stand at room temperature or 37° C. for 5 min.
c. The digestion was stopped with an equal volume of medium containing 10% FBS, and the cell suspension was collected and centrifuged at 300 g for 3 min. The cells were suspended in a proper amount of fresh medium.
d. The resulting cell suspension was collected and cell counting was performed.
e. The cell suspension was diluted and plated at 9000 cells/50 μL/well.
f. The wells on the periphery were blocked with 100 μL of PBS.
g. The cell culture plates were incubated overnight in a 37° C., 5% carbon dioxide incubator.
2.2. Compound Addition (Day Two)
a. 50 μL of diluted compound was added to the cell supernatant (50 μL/well) in each cell plate.
b. After the addition, the cell plates were incubated in a 37° C., 5% carbon dioxide incubator for 24 h.
2.3. Immunofluorescence Staining and Measurement (Day Three to Day Four)
a. After the 24-hour incubation, the cell plates were removed from the incubator. The medium was discarded, and plates were fixed with pre-cooled methanol at room temperature for 10 min.
b. The fixation buffer was discarded, and the plates were quickly washed with wash buffer 3 times and then slowly washed 3 times (5 min/wash).
c. The wash buffer was discarded, and blocking buffer was added. The plates were incubated at room temperature for 60 min.
d. The blocking buffer was discarded, and the prepared primary antibody solution was added. The plates were incubated overnight at 4° C.
e. The primary antibody solution was discarded, and the prepared secondary antibody solution was added. The plates were incubated at room temperature for 60 min.
f. The secondary antibody solution was discarded, and the plates were quickly washed with wash buffer 3 times and then slowly washed 5 times (5 min/wash).
g. The plates were tested on ImageXpress® Micro Confocal.
h. […]

COc1cccc(OC(F)(F)F)c1S(=O)(=O)Nc1noc2cc(Cn3cccn3)c3c(c12)OCCC3 [Compound 10, N-(5-((1H-pyrazol-1-yl)methyl)-3,4-dihydro-2H-chromeno[8,7-d]isoxazol-9-yl)-2-methoxy-6-(trifluoromethoxy)benzenesulfonamide]
IC50: 1.2 nM | Emax: 106%

COc1cccc(OC)c1S(=O)(=O)Nc1noc2cc(Cn3cccn3)c3c(c12)OCC3 [Compound 1, N-(4-((1H-pyrazol-1-yl)methyl)-2,3-dihydrobenzofuro[7,6-d]isoxazol-8-yl)-2,6-dimethoxybenzenesulfonamide]
IC50: 1.1 nM | Emax: 102%

COc1ccc(F)cc1S(=O)(=O)Nc1noc2cc(Cn3cccn3)c3c(c12)OCCC3 [Compound 9, N-(5-((1H-pyrazol-1-yl)methyl)-3,4-dihydro-2H-chromeno[8,7-d]isoxazol-9-yl)-5-fluoro-2-methoxybenzenesulfonamide]
IC50: 0.75 nM | Emax: 99.5%

COc1ccccc1S(=O)(=O)Nc1noc2cc(Cn3cccn3)c3c(c12)OCC3 [Compound 20, N-(4-((1H-pyrazol-1-yl)methyl)-2,3-dihydrobenzofuro[7,6-d]isoxazol-8-yl)-2-methoxybenzenesulfonamide]
IC50: 4.6 nM | Emax: 99.4%

CCOc1cc(C)ccc1S(=O)(=O)Nc1noc2cc(Cn3cccn3)c3c(c12)OCCC3 [Compound 7, N-(5-((1H-pyrazol-1-yl)methyl)-3,4-dihydro-2H-chromeno[8,7-d]isoxazol-9-yl)-2-ethoxy-4-methylbenzenesulfonamide]
IC50: 1.4 nM | Emax: 97.4%

COc1ccccc1S(=O)(=O)Nc1noc2cc(Cn3cccn3)c3c(c12)OCCC3 [Compound 3, N-(5-((1H-pyrazol-1-yl)methyl)-3,4-dihydro-2H-chromeno[8,7-d]isoxazol-9-yl)-2-methoxybenzenesulfonamide]
IC50: 0.9 nM | Emax: 106%

Cc1ccc(S(=O)(=O)Nc2noc3cc(Cn4cccn4)c4c(c23)OCCC4)c(OCC(F)(F)F)c1 [Compound 8, N-(5-((1H-pyrazol-1-yl)methyl)-3,4-dihydro-2H-chromeno[8,7-d]isoxazol-9-yl)-4-methyl-2-(2,2,2-trifluoroethoxy)benzenesulfonamide]
IC50: 2.8 nM | Emax: 99.4%

COc1cccc(OC)c1S(=O)(=O)Nc1noc2cc(Cn3cccn3)c3c(c12)OC(F)(F)O3 [Compound 5, N-(4-((1H-pyrazol-1-yl)methyl)-2,2-difluoro-[1,3]dioxolo[4′,5′:5,6]benzo[1,2-d]isoxazol-8-yl)-2,6-dimethoxybenzenesulfonamide]
IC50: 0.6 nM | Emax: 104%

COc1cccc(OC)c1S(=O)(=O)Nc1noc2cc(Cn3cccn3)c3c(c12)OCCC3 [Compound 2, N-(5-((1H-pyrazol-1-yl)methyl)-3,4-dihydro-2H-chromeno[8,7-d]isoxazol-9-yl)-2,6-dimethoxybenzenesulfonamide]
IC50: 0.4 nM | Emax: 98.5%

Reference: patent US20250145637A1, “SULFONAMIDE DERIVATIVE, PREPARATION METHOD THEREFOR AND MEDICAL USE THEREOF” (Jiangsu Hengrui Pharmaceuticals Co. Ltd., priority 2021, published 2025)
